# Source: US9371280B2, “Substituted pyrrolidine-2-carboxamides” (Hoffmann-La Roche Inc., priority 2012, dated 2016)
# Counter-ions that a name gives are not always drawn.
# Molecular target: interaction between p53 and MDM2 proteins (recombinant GST-tagged MDM2) (Homo sapiens, UniProt Q00987)
# Test: HTRF assay of inhibition of the p53-MDM2 interaction (GST-MDM2 / biotinylated p53 peptide);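 note: FRET read-out from Eu-labelled anti-GST antibody to streptavidin-APC, with 90 nM N-terminally biotinylated p53 peptide and 160 ng/ml GST-MDM2 in Tris-borate saline containing 1 mM DTT, 384-well format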
# Format: binding
# Settings: not given
# Chain of interaction between p53 and MDM2 proteins (recombinant GST-tagged MDM2) (Q00987 whole entry): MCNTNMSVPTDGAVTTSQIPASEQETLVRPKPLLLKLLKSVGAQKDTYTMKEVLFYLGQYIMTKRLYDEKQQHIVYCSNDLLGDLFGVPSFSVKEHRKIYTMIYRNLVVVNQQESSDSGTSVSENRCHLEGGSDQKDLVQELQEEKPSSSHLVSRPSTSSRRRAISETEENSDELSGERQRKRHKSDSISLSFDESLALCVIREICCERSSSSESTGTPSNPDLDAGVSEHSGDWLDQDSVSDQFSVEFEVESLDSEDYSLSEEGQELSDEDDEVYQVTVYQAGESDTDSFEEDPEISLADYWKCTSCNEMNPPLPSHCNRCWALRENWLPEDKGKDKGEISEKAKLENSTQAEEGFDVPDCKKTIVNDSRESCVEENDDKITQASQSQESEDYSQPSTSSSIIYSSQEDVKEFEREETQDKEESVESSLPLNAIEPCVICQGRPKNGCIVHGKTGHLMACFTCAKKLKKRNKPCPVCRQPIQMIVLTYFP
row,SMILES,IC50 [µM]
1,"COc1cc(C(=O)OCCCC(=O)O)ccc1NC(=O)[C@@H]1N[C@@H](CC(C)(C)C)[C@](C#N)(c2ccc(Cl)cc2F)[C@H]1c1cccc(Cl)c1F [Example 36, 4-{[(2R,3S,4R,5S)-4-(4-Chloro-2-fluoro-phenyl)-3-(3-chloro-2-fluoro-phenyl)-4-cyano-5-(2,2-dimethyl-propyl)-pyrrolidine-2-carbonyl]-amino}-3-methoxy-benzoic acid 3-carboxy-propyl ester]",0.00498

# Same assay, conditions: HTRF, 0.02% BSA, 37° C. 1 h
row,SMILES,IC50 [µM]
1,"COc1cc(C(=O)OCC(=O)N(C)C)ccc1NC(=O)[C@@H]1N[C@@H](CC(C)(C)C)[C@](C#N)(c2ccc(Cl)cc2F)[C@H]1c1cccc(Cl)c1F [Example 24, 4-{[(2R,3S,4R,5S)-4-(4-Chloro-2-fluoro-phenyl)-3-(3-chloro-2-fluoro-phenyl)-4-cyano-5-(2,2-dimethyl-propyl)-pyrrolidine-2-carbonyl]-amino}-3-methoxy-benzoic acid dimethylcarbamoylmethyl ester, hydrochloride]",0.0139
2,"COc1cc(C(=O)OCC(C)N2CCOCC2)ccc1NC(=O)[C@@H]1N[C@@H](CC(C)(C)C)[C@](C#N)(c2ccc(Cl)cc2F)[C@H]1c1cccc(Cl)c1F (stereo partly drawn) [Example 25, 4-{[(2R,3S,4R,5S)-4-(4-Chloro-2-fluoro-phenyl)-3-(3-chloro-2-fluoro-phenyl)-4-cyano-5-(2,2-dimethyl-propyl)-pyrrolidine-2-carbonyl]-amino}-3-methoxy-benzoic acid 2-morpholin-4-yl-propyl ester, hydrochloride]",0.0155
3,"COc1cc(C(=O)NCCN2CCN(C)CC2)ccc1NC(=O)[C@@H]1N[C@@H](CC(C)(C)C)[C@](C#N)(c2ccc(Cl)cc2F)[C@H]1c1cccc(Cl)c1F [Example 26, (2R,3S,4R,5S)-4-(4-Chloro-2-fluoro-phenyl)-3-(3-chloro-2-fluoro-phenyl)-4-cyano-5-(2,2-dimethyl-propyl)-pyrrolidine-2-carboxylic acid {2-methoxy-4-[2-(4-methyl-piperazin-1-yl)-ethylcarbamoyl]-phenyl}-amide, hydrochloride]",0.00867
4,"COc1cc(C(=O)N(C)C)ccc1NC(=O)[C@@H]1N[C@@H](CC(C)(C)C)[C@](C#N)(c2ccc(Cl)cc2F)[C@H]1c1cccc(Cl)c1F [Example 27, (2R,3S,4R,5S)-4-(4-Chloro-2-fluoro-phenyl)-3-(3-chloro-2-fluoro-phenyl)-4-cyano-5-(2,2-dimethyl-propyl)-pyrrolidine-2-carboxylic acid (4-dimethylcarbamoyl-2-methoxy-phenyl)-amide]",0.0129
5,"COc1cc(C(=O)OC[C@H](O)[C@@H](O)[C@H](O)[C@H](O)CO)ccc1NC(=O)[C@@H]1N[C@@H](CC(C)(C)C)[C@](C#N)(c2ccc(Cl)cc2F)[C@H]1c1cccc(Cl)c1F [Example 28, 4-{[(2R,3S,4R,5S)-4-(4-Chloro-2-fluoro-phenyl)-3-(3-chloro-2-fluoro-phenyl)-4-cyano-5-(2,2-dimethyl-propyl)-pyrrolidine-2-carbonyl]-amino}-3-methoxy-benzoic acid (2S,3R,4R,5R)-2,3,4,5,6-pentahydroxy-hexyl ester]",0.00602
6,"COc1cc(C(=O)OCCOC(=O)CNC(=O)OC(C)(C)C)ccc1NC(=O)[C@@H]1N[C@@H](CC(C)(C)C)[C@](C#N)(c2ccc(Cl)cc2F)[C@H]1c1cccc(Cl)c1F [Example 29, 4-{[(2R,3S,4R,5S)-4-(4-Chloro-2-fluoro-phenyl)-3-(3-chloro-2-fluoro-phenyl)-4-cyano-5-(2,2-dimethyl-propyl)-pyrrolidine-2-carbonyl]-amino}-3-methoxy-benzoic acid 2-(2-tert-butoxycarbonylamino-acetoxy)-ethyl ester]",0.0167
7,"COc1cc(C(=O)OCCOC(=O)CN)ccc1NC(=O)[C@@H]1N[C@@H](CC(C)(C)C)[C@](C#N)(c2ccc(Cl)cc2F)[C@H]1c1cccc(Cl)c1F [Example 30, 4-{[(2R,3S,4R,5S)-4-(4-Chloro-2-fluoro-phenyl)-3-(3-chloro-2-fluoro-phenyl)-4-cyano-5-(2,2-dimethyl-propyl)-pyrrolidine-2-carbonyl]-amino}-3-methoxy-benzoic acid 2-(2-amino-acetoxy)-ethyl ester]",0.0172
8,"COc1cc(C(=O)OCCOC(=O)CN(C)C(=O)OC(C)(C)C)ccc1NC(=O)[C@@H]1N[C@@H](CC(C)(C)C)[C@](C#N)(c2ccc(Cl)cc2F)[C@H]1c1cccc(Cl)c1F [Example 31, 4-{[(2R,3S,4R,5S)-4-(4-Chloro-2-fluoro-phenyl)-3-(3-chloro-2-fluoro-phenyl)-4-cyano-5-(2,2-dimethyl-propyl)-pyrrolidine-2-carbonyl]-amino}-3-methoxy-benzoic acid 2-[2-(tert-butoxycarbonyl-methyl-amino)-acetoxy]-ethyl ester]",0.0137
9,"CNCC(=O)OCCOC(=O)c1ccc(NC(=O)[C@@H]2N[C@@H](CC(C)(C)C)[C@](C#N)(c3ccc(Cl)cc3F)[C@H]2c2cccc(Cl)c2F)c(OC)c1 [Example 32, 4-{[(2R,3S,4R,5S)-4-(4-Chloro-2-fluoro-phenyl)-3-(3-chloro-2-fluoro-phenyl)-4-cyano-5-(2,2-dimethyl-propyl)-pyrrolidine-2-carbonyl]-amino}-3-methoxy-benzoic acid 2-(2-methylamino-acetoxy)-ethyl ester, hydrochloride]",0.0164
10,"COc1cc(C(=O)OCCOC(=O)[C@@H](NC(=O)[C@H](C)N(C)C(=O)OC(C)(C)C)C(C)C)ccc1NC(=O)[C@@H]1N[C@@H](CC(C)(C)C)[C@](C#N)(c2ccc(Cl)cc2F)[C@H]1c1cccc(Cl)c1F [Example 33, 4-{[(2R,3S,4R,5S)-4-(4-Chloro-2-fluoro-phenyl)-3-(3-chloro-2-fluoro-phenyl)-4-cyano-5-(2,2-dimethyl-propyl)-pyrrolidine-2-carbonyl]-amino}-3-methoxy-benzoic acid 2-[(S)-3-methyl-2-((S)-2-tert-butoxycarbonyl-methylamino-propionylamino)-butyryloxy]-ethyl ester]",0.0199
11,"COC(=O)COC(=O)c1ccc(NC(=O)[C@@H]2N[C@@H](CC(C)(C)C)[C@](C#N)(c3ccc(Cl)cc3F)[C@H]2c2cccc(Cl)c2F)c(OC)c1 [Example 35, 4-{[(2R,3S,4R,5S)-4-(4-Chloro-2-fluoro-phenyl)-3-(3-chloro-2-fluoro-phenyl)-4-cyano-5-(2,2-dimethyl-propyl)-pyrrolidine-2-carbonyl]-amino}-3-methoxy-benzoic acid methoxycarbonylmethyl ester]",0.0125
12,"COc1cc(C(=O)OCCC(=O)OC(C)(C)C)ccc1NC(=O)[C@@H]1N[C@@H](CC(C)(C)C)[C@](C#N)(c2ccc(Cl)cc2F)[C@H]1c1cccc(Cl)c1F [Example 37, 4-{[(2R,3S,4R,5S)-4-(4-Chloro-2-fluoro-phenyl)-3-(3-chloro-2-fluoro-phenyl)-4-cyano-5-(2,2-dimethyl-propyl)-pyrrolidine-2-carbonyl]-amino}-3-methoxy-benzoic acid 2-tert-butoxycarbonyl-ethyl ester]",0.016
13,"COc1cc(C(=O)OCCC(=O)O)ccc1NC(=O)[C@@H]1N[C@@H](CC(C)(C)C)[C@](C#N)(c2ccc(Cl)cc2F)[C@H]1c1cccc(Cl)c1F [Example 38, 4-{[(2R,3S,4R,5S)-4-(4-Chloro-2-fluoro-phenyl)-3-(3-chloro-2-fluoro-phenyl)-4-cyano-5-(2,2-dimethyl-propyl)-pyrrolidine-2-carbonyl]-amino}-3-methoxy-benzoic acid 2-carboxy-ethyl ester]",0.0102
14,"COc1cc(C(=O)NN)ccc1NC(=O)[C@@H]1N[C@@H](CC(C)(C)C)[C@](C#N)(c2ccc(Cl)cc2F)[C@H]1c1cccc(Cl)c1F [Example 39, (2R,3S,4R,5S)-4-(4-Chloro-2-fluoro-phenyl)-3-(3-chloro-2-fluoro-phenyl)-4-cyano-5-(2,2-dimethyl-propyl)-pyrrolidine-2-carboxylic acid (4-hydrazinocarbonyl-2-methoxy-phenyl)-amide]",0.0365
15,"COc1cc(C(=O)O[C@@H]2O[C@H](C(=O)O)[C@@H](O)[C@H](O)[C@H]2O)ccc1NC(=O)[C@@H]1N[C@@H](CC(C)(C)C)[C@](C#N)(c2ccc(Cl)cc2F)[C@H]1c1cccc(Cl)c1F [Example 40, (2S,3S,4S,5R,6S)-6-(4-{[(2R,3S,4R,5S)-4-(4-Chloro-2-fluoro-phenyl)-3-(3-chloro-2-fluoro-phenyl)-4-cyano-5-(2,2-dimethyl-propyl)-pyrrolidine-2-carbonyl]-amino}-3-methoxy-benzoyloxy)-3,4,5-trihydroxy-tetrahydro-pyran-2-carboxylic acid; compound with trifluoro-acetic acid]",0.0062
16,"COc1cc(C(=O)OC[C@H]2O[C@@H](O)[C@H](O)[C@@H](O)[C@@H]2O)ccc1NC(=O)[C@@H]1N[C@@H](CC(C)(C)C)[C@](C#N)(c2ccc(Cl)cc2F)[C@H]1c1cccc(Cl)c1F [Example 41, 4-{[(2R,3S,4R,5S)-4-(4-Chloro-2-fluoro-phenyl)-3-(3-chloro-2-fluoro-phenyl)-4-cyano-5-(2,2-dimethyl-propyl)-pyrrolidine-2-carbonyl]-amino}-3-methoxy-benzoic acid (2R,3S,4S,5R,6R)-3,4,5,6-tetrahydroxy-tetrahydro-pyran-2-ylmethyl ester; compound with trifluoro-acetic acid]",0.00695
17,"COc1cc(C(=O)OCCOCCOCCOCCOCCOCCOCCOCCO)ccc1NC(=O)[C@@H]1N[C@@H](CC(C)(C)C)[C@](C#N)(c2ccc(Cl)cc2F)[C@H]1c1cccc(Cl)c1F [Example 42, 4-{[(2R,3S,4R,5S)-4-(4-Chloro-2-fluoro-phenyl)-3-(3-chloro-2-fluoro-phenyl)-4-cyano-5-(2,2-dimethyl-propyl)-pyrrolidine-2-carbonyl]-amino}-3-methoxy-benzoic acid, 2-(2-{2-[2-(2-{2-[2-(2-hydroxy-ethoxy)-ethoxy]-ethoxy}-ethoxy)-ethoxy]-ethoxy}-ethoxy)-ethyl ester, trifluoroacetate salt]",0.0222
18,"COc1cc(C(=O)OCCOCCN(C)C)ccc1NC(=O)[C@@H]1N[C@@H](CC(C)(C)C)[C@](C#N)(c2ccc(Cl)cc2F)[C@H]1c1cccc(Cl)c1F [Example 46, 4-{[(2R,3S,4R,5S)-4-(4-Chloro-2-fluoro-phenyl)-3-(3-chloro-2-fluoro-phenyl)-4-cyano-5-(2,2-dimethyl-propyl)-pyrrolidine-2-carbonyl]-amino}-3-methoxy-benzoic acid 2-(2-dimethylamino-ethoxy)-ethyl ester, hydrochloride]",0.0142
